How the values were obtained:
[1] = at STP; cited from earlier work
[2] = test system: ARDS patients; settings: cited from earlier work
[3] = test system: patients with moderately severe Acute Lung Injury (ALI); assay: Randomized, blinded, placebo-controlled 28-day study of low-dose (5 ppm) iNO, intent-to-treat analysis; type: in vivo, human
Description: (§1) A large-scale, randomized, blinded, placebo-controlled study was carried out in the Intensive Care Units (ICUs) of 46 US hospitals to evaluate the efficacy of low-dose (5 ppm) iNO in 385 patients with moderately severe Acute Lung Injury (ALI). The primary endpoint of this study was number of days alive and off assisted breathing.
(§2) Patients had moderately severe acute lung injury (ALI), defined by a modification of American-European Consensus Conference criteria (PaO2/inspired oxygen concentration [FiO2] ratio of ≦250 mm Hg), due to causes other than severe sepsis. Patients with evidence of non-pulmonary system failure at the time of randomization and sepsis-induced ARDS were excluded. Patients were also excluded if they had sustained hypotension requiring vasopressor support, hemodynamic profiles supporting severe sepsis, severe head injury, severe burns, or evidence of other significant organ system dysfunction at baseline.
(§3) Patients were randomly assigned to receive either inhaled placebo gas (nitrogen) or 5 ppm of iNO (INO Therapeutics Inc., Port Allen, La.). All patients, healthcare professionals, and investigators were blinded to the assigned treatment. Inhaled NO was administered via INOvent® delivery system (Datex-Ohmeda, Madison, Wis.) that blended treatment gas (nitrogen or NO at 100-ppm balance nitrogen) 1:20 with ventilator gases to achieve a target ppm value in the inspiratory limb of the ventilator.
(§4) All patients using the iNO delivery system received mechanical ventilatory support. Treatment continued with active or placebo gas until one of the following criteria were met: [1] end of trial (28 days); [2] death; or [3] adequate oxygenation (arterial oxygen saturation by pulse oximetry [SpO2]≧92% or PaO2 of ≧63 mm Hg) without treatment gas at ventilator settings of FiO2≦0.4 and positive end-expiratory pressure (PEEP) of ≦5 cm H2O. Decreases in treatment gas continued in 20% decrements (titrated down by 1 ppm for inhaled NO) every 30 minutes until either the treatment gas concentration reached 0% or oxygenation criteria were not satisfied. If oxygenation criteria were not met, treatment gas concentration was titrated up until they were again achieved. Increments of upward titration were determined by the clinician, based on degree of arterial desaturation.

[4] = test system: experimental animals and ARDS patients; settings: cited from earlier work
[5] = test system: patients with moderately severe acute lung injury (ALI) / ARDS survivors; assay: Pulmonary function tests at 6 months post-treatment in ARDS survivors (iNO 5 ppm vs placebo); type: in vivo, human
Description: as §1, §2, §3, §4
Pulmonary function testing (PFT) at 6 months post-treatment was required in both iNO- and placebo-treated patients as part of the original study design. PFTs included forced expiratory volume in 1 second (FEV1), FEV1% predicted, forced vital capacity (FVC), FVC % predicted, the FEV1/FVC ratio, FEV1/FVC ratio % predicted, forced expiratory flow (FEF) from 25% to 75% of FVC (FEF25-75%), FEF25-75%% predicted, functional residual capacity (FRC), FRC % predicted, total lung capacity (TLC), TLC % predicted, CO diffusion, and CO diffusion % predicted.
(§5) All between-group differences in PFT results were evaluated using the Wilcoxon rank sum test. Between-group differences in baseline clinical and demographic characteristics were assessed with the Fisher's exact test and the chi-square test for categorical variables and with the Wilcoxon rank sum test for continuous variables. Baseline oxygenation and respiratory/oxygenation parameters in the two groups were compared using Wilcoxon rank sum tests. The areas under the curve (AUCs) of FiO2, PEEP, and PaO2/FiO2 ratio were calculated using the trapezoidal rule. The null hypothesis that the respective AUCs were normally distributed was rejected employing the Shapiro-Wilk test. A Wilcoxon rank sum test was utilized to assess the differences in each median AUC between treatment groups. A p value <0.05 was considered significant.
A total of 92 of the 302 survivors (30%) were capable of and participated in the 6-month follow-up pulmonary function analysis (iNO, n=51; placebo, n=41). The balance of surviving subjects was lost to follow-up for reasons unknown, and PFT data are not available. […]

[6] = test system: patients with moderately severe Acute Lung Injury (ALI); assay: Safety results, adverse events in the initial 28-day study period; type: in vivo, human; settings: iNO 5 ppm
Description: as §1
Safety results for the initial 28-day study period have been reported and are summarized briefly here. A total of 630 adverse events (AEs) were reported for patients treated with iNO versus 666 events for those who received placebo. Respiratory system AEs occurred in 51% versus 61% of patients receiving iNO and placebo, respectively, primarily due to higher frequencies of pneumonia, pneumothorax, and apnea in the placebo group.

[7] = test system: patients with moderately severe acute lung injury (ALI) / ARDS survivors; assay: Respiratory parameters during mechanical ventilation: cumulative exposure (AUC) over study gas administration; type: in vivo, human; settings: for Duration of exposure: PaO2/FiO2 ratio: during study gas administration / length of mechanical ventilation
Description: Baseline oxygenation measures included PaO2, arterial partial pressure of CO2 (PaCO2), SpO2, FiO2, PEEP, PaO2/FiO2 ratio, […], tidal volume, and mean airway pressure. Respiratory parameters (FiO2, PEEP, and PaO2/FiO2 ratio) were recorded on case report forms every 12 hours during mechanical ventilation.
as §5

[8] = experimental animals and ARDS patients

[N]=O [Inhaled NO, nitric oxide]
Solubility in water [1]: about 2 mM | H2O2 production by polymorphonuclear leukocytes [2]: significantly decrease | IL-6 concentration in BAL fluid [2]: decreased | IL-8 concentration in BAL fluid [2]: decreased | β2-integrin CD11b/CD18 expression by polymorphonuclear leukocytes [2]: significantly decrease | Partial pressure of arterial oxygen (PaO2) ([3]; initial 24 hours of treatment, p<0.05, resolved by 48 hours): significant increase | Days alive and meeting oxygenation criteria for extubation, benefit versus control ([3]; intent-to-treat): no significant benefit | Mortality, benefit versus control (nitrogen gas) ([3]; intent-to-treat, 5 ppm iNO, 385 patients): no significant benefit | Days alive and off assisted breathing, benefit versus control ([3]; intent-to-treat, primary endpoint): no significant benefit | Formation of platelet-leukocyte aggregates ([4]; correlated with NO-dependent inhibition of platelet P-selectin expression): significantly inhibiting | Pulmonary concentrations of interleukin (IL)-8 [4, 8]: significantly decreases | Pulmonary concentrations of neutrophils [4, 8]: significantly decreases | FRC, % predicted ([5]; mean): 93.98 % predicted | TLC ([5]; mean): 5.54 L | TLC, % predicted ([5]; mean): 93.33 % predicted | CO diffusion ([5]; mean (SD)): 18.25 (6.77) mL/min/mm Hg | CO diffusion, % predicted ([5]; mean (SD)): 71.02 (20.79) % predicted | FEF25/75%, % predicted ([5]; mean (SD)): 72.50 (27.71) % predicted | FEV1, % predicted ([5]; mean (SD)): 80.23 (21.21) % predicted | FEV1/FVC ([5]; mean (SD)): 77.45 (15.19) % | FEV1/FVC, % predicted ([5]; mean (SD)): 96.14 (13.79) % predicted | FRC ([5]; mean (SD)): 3.00 (0.94) L | FVC ([5]; mean (SD)): 3.36 (1.09) L | FVC, % predicted ([5]; mean (SD)): 83.78 (19.38) % predicted | FEV1 ([5]; mean (SD), iNO 5 ppm up to 28 days): 2.64 (0.91) L | FEV1, % predicted ([5]; mean (SD), listed as iNO): significantly greater | FEV1/FVC, % predicted ([5]; mean (SD), listed as iNO): significantly greater | FVC, % predicted ([5]; mean (SD), listed as iNO): significantly greater | TLC ([5]; mean, listed as iNO): significantly greater | TLC, % predicted ([5]; mean, listed as iNO): significantly greater | Patients with respiratory system AEs [6]: 51% | Total adverse events (AEs) reported [6]: 630 events | Duration of exposure: PaO2/FiO2 ratio ([7]; mean ± SD): 262 ± 407 | Duration of exposure: PaO2/FiO2 ratio ([7]; mean ± SD, listed as iNO): 2637±1729 | Duration of exposure: FiO2 ([7]; during study gas administration, mean ± SD, N = 51): 6.34 ± 4.5 | Cumulative exposure to FiO2, PEEP and PaO2/FiO2 ratio, versus placebo ([7]; over the length of mechanical ventilation): less cumulative exposure to all three variables | Duration of exposure, total FiO2 ([7]; over the length of mechanical ventilation, mean ± SD): 6.3 ± 4.5 days | Aggregate per-patient changes from baseline in supplemental oxygen, PEEP, or PaO2/FiO2 ratio, versus placebo ([7]; through day 28 (FIG. 2a-c)): no significant differences between groups

Reference: patent US20120107423A1, “Methods of Using Inhaled Nitric Oxide Gas for Treatment of Acute Respiratory Distress Syndrome” (INO Therapeutics LLC, priority 2010, published 2012)
